Assay [1] has as its system HNT2RS. The experiment in a line: Competition of [3H]neurotensin binding, membranes from GH4C1 cells stably expressing HNT2RS. Also noted: species or system human. As to conditions: HNT2RS (short form), FIG. 1B.
Description: (§2) A: Binding to membranes from GH4C1 cells stably expressing HNT2RL. B: Binding to membranes from GH4C1 cells stably expressing HNT2RS.
The adherent cells were removed from the plates with PBS and 2 mM EDTA, pelleted by centrifugation at 1,500×g for 10 minutes at 4° C., and resuspended in ice cold homogenization buffer (1 mM sodium bicarbonate, 1 mM EDTA, 1 mM EGTA, pH 7.2) containing 1×protease inhibitors (5 μg/ml leupeptin, 5 μug/ml aprotinin, 100 μg/ml bacitracin, and 100 μg/ml benzamidine). After 10 minutes on ice, the cells were lysed by dounce homogenizing for 20 strokes in a glass/glass homogenizer. The cell lysate was centrifuged at 1,500×g for 10 minutes at 4° C. to remove the nuclei and cell debris and the supernatant containing the cell membranes were harvested by centrifugation at 20,000×g for 30 minutes at 4° C. The membrane pellet was resuspended in 1×homogenization buffer containing 1×protease inhibitors and once again pelleted. The membrane pellet was then resuspended at 1-5 mg/ml in 25 mM Tris, pH 7.4 and either directly used in binding assays or frozen (−80° C.) in small aliquots for future use.
Radioligand binding assays: competition binding. All radioligand binding assays were performed in 96-well microtiter plates using 1×binding buffer (50 mM HEPES, pH 7.4, 10 mM MgCl2, 0.2% BSA, pH 7.4) containing protease inhibitors (5 μg/ml leupeptin, 5 μmg/ml aprotinin, 100 μg/ml bacitracin, and 100 μg/ml benzamidine). […] Binding reactions were initiated by adding 5-100 μg of membrane protein in a 170 μl volume. Final reaction volume was 200 μl/well.
The microtiter plate was placed on a rotary shaker at 200 rpm and incubated at room temperature for 2 hours. Free radioligand was separated from bound ligand by rapid filtration through a glass fiber (GF/C) filter plate pretreated with 0.3% polyethyleneimine for 30 minutes) using a Packard cell harvester. […] After the filter plates were dried in a 37° C. incubator for 2 hours, 25 μl Microscint scintillation fluid (Packard) was added to each well and the plate was counted in a Packard Top Count scintillation counter.
The next assay has as its target T1, HNT2RL (Homo sapiens, UniProt O95665).
T1 construct: The HindIII and XbaI digested full-length receptor cDNAs were inserted into the pRC/CMV (Invitrogen) vector; expressed in transfected cells; host or cells: GH4C1 (rat pituitary) membranes for A6 and A8; CHO-K1 membranes for A9; SK-N-MC whole cells for A11
The experiment in a line: Competition of [3H]neurotensin binding, membranes from GH4C1 cells stably expressing HNT2RL. The following applies: HNT2RL (long form), FIG. 1A.

A further assay addresses H1-histamine receptors (Homo sapiens, UniProt P35367). The following applies: cited from earlier work.
Assay [2] deals with neurotensin receptor subtypes NT1R, NT2R, NT3R. As to conditions: cited from earlier work.
Another assay concerns fasted ob/ob males. The experiment in a line: Effect of AcNT(8-13) on appetite / food consumption in mouse models of obesity. The assay is classed as in vivo. The text has this: (§1) Obesity is associated with decreased metabolic energy expenditure and increased metabolic efficiency. Increasing metabolic energy expenditure (thermogenesis) is a desirable characteristic of anti-obesity targets.

In assay [3] the test system is HNT2RS. Briefly: GTP sensitivity of [3H]NT binding, CHO-K1 membranes stably expressing HNT2RS. Set-up: species or system human. How it is done: GTP sensitivity. These radioligand binding assays were performed in 96-well microtiter plates using 1×binding buffer (50 mM HEPES, pH 7.4, 10 mM MgCl2, 0.4% BSA, pH 7.4) containing protease inhibitors (5 μg/ml leupeptin, 5 μg/ml aprotinin, 100 μg/ml bacitracin, and 100 μg/ml benzamidine). […] Wells A1-6 were repeated for each membrane preparation to be tested for GTP sensitivity. Binding reactions were initiated by adding 5-100 μg of membrane protein in a 170 μl volume. Final reaction volume was 200 μl/well. The microtiter plate was placed on a rotary shaker at 200 rpm and incubated at room temperature for 2 hours. Free radioligand was separated from bound ligand by rapid filtration through a glass fiber (GF/C) filter plate pretreated with 0.3% polyethyleneimine using a Packard cell harvester. The filter plates were then washed several times with cold (4° C.) binding buffer lacking BSA. After the filter plates were dried in a 37° C. incubator for 2 hours, 25 μl Microscint scintillation fluid (Packard) was added to each well and the plate was counted in a Packard Top Count scintillation counter.

For a further assay, the target named is T2, HNT2R (Homo sapiens, UniProt O95665).
T2 construct: The HindIII and XbaI digested full-length receptor cDNAs were inserted into the pRC/CMV (Invitrogen) vector; expressed in transfected cells; host or cells: GH4C1 (rat pituitary) membranes for A6 and A8; CHO-K1 membranes for A9; SK-N-MC whole cells for A11
T2 sequence (O95665 whole entry): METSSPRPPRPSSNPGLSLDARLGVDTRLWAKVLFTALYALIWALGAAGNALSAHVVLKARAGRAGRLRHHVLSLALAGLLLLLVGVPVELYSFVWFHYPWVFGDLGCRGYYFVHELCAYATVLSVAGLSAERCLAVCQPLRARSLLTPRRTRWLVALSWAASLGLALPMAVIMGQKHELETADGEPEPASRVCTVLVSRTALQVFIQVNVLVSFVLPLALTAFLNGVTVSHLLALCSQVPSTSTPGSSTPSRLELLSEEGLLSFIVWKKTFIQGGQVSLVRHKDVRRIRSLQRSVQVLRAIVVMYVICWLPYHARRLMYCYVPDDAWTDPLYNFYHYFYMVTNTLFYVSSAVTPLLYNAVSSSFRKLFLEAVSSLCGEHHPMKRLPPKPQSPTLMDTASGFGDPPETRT
Briefly: GTP sensitivity of [3H]NT binding, CHO-K1 membranes stably expressing HNT2R.

Assay [4] in a line: Acute metabolic responses to AcNT(8-13): lipolysis, oxygen consumption. The following applies: administered acutely. The assay is classed as in vivo.
Description: as §1

The text below walks through data of patent US6420137B1 (American Home Products Corporation, priority 1998, dated 2002).

Where a name gives a salt, the structure may show the parent alone.

Sequence of H1-histamine receptors (P35367 whole entry): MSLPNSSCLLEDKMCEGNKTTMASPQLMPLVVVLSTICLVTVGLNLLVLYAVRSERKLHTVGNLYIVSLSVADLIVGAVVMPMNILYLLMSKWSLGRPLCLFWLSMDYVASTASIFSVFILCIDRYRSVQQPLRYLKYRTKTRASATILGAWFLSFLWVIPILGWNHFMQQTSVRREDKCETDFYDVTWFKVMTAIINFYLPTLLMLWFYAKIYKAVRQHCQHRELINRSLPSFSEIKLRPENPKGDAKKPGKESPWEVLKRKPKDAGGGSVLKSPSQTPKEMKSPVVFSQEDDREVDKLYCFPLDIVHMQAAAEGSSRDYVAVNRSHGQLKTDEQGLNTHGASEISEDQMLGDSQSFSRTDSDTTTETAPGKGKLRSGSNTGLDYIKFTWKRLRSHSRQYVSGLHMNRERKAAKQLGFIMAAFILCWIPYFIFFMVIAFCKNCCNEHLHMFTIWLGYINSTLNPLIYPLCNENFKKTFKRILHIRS
T1 sequence (O95665 whole entry): as the sequence (O95665 whole entry) above
Description for HNT2RL: as §2
The adherent cells were removed from the plates with PBS and 2 mM EDTA, pelleted by centrifugation at 1,500×g for 10 minutes at 4° C., and resuspended in ice cold homogenization buffer (1 mM sodium bicarbonate, 1 mM EDTA, 1 mM EGTA, pH 7.2) containing 1×protease inhibitors (5 μg/ml leupeptin, 5 μug/ml aprotinin, 100 μg/ml bacitracin, and 100 μg/ml benzamidine). After 10 minutes on ice, the cells were lysed by dounce homogenizing for 20 strokes in a glass/glass homogenizer. The cell lysate was centrifuged at 1,500×g for 10 minutes at 4° C. to remove the nuclei and cell debris and the supernatant containing the cell membranes were harvested by centrifugation at 20,000×g for 30 minutes at 4° C. The membrane pellet was resuspended in 1×homogenization buffer containing 1×protease inhibitors and once again pelleted. […]
The microtiter plate was placed on a rotary shaker at 200 rpm and incubated at room temperature for 2 hours. […] After the filter plates were dried in a 37° C. incubator for 2 hours, 25 μl Microscint scintillation fluid (Packard) was added to each well and the plate was counted in a Packard Top Count scintillation counter.

On to `COc1cccc(OC)c1-c1cc(C(=O)NC2(C(=O)O)C3CC4CC(C3)CC2C4)nn1-c1ccnc2cc(Cl)ccc12` (centres unmarked) [SR48692], for which the “competition of [3H]neurotensin binding” value in the assay with HNT2RS [1] and at HNT2RL was “competed at a concentration about two orders of magnitude higher” each time.
In the case of `c1ccncc1` [Pyridine, pyridine], the “binding to H1-histamine receptors” value on H1-histamine receptors is “high affinity binding”. In addition, the “binding to NTR subtypes” value in assay [2] is “not to any NTR subtypes”. For the same molecule, in the assay with fasted ob/ob males (antihistamine at 1 mg/kg), the “block of AcNT(8-13)-mediated appetite suppression” value is given as “did not block”.
For “[^3H]NT: tritiated neurotensin radioligand (New England Nuclear, 100 Ci/mmol)”, the “Specific [3H]NT Bound in Presence of 100 μM GTPγS” value in the assay on HNT2RS [3] came out at 451 cpm. Besides, in the assay on HNT2RS [3] (no GTPγS), the “Specific [3H]NT Bound” value was determined as 697 cpm.
For the molecule `C[C@@H]1CN([C@H]2CC[C@](C#N)(c3ccc(F)cc3)CC2)CC[C@]1(C(=O)O)c1ccccc1` [levocabastine, (−)-{3S-[1(cis)-3α4β]}-1-{4-cyano-4-(4-fluoro-phenyl)-cyclohexyl)}-3-methyl-4-phenyl-4-piperidene-carboxylic acid monohydrochloride], in assay [2], the “binding to the NT2R subtype” value was “high affinity”; the “selectivity for the NT2R over the NT1R and NT3R subtypes” value is 1000 fold. Further, the “reversal of the suppression of food intake mediated by AcNT(8-13)” value in the assay with fasted ob/ob males (animals pretreated with antagonist, 50 μg/kg AcNT(8-13)) is “completely reversed”.
Take `Nc1nc2c(ncn2[C@@H]2O[C@H](COP(=O)(O)OP(=O)(O)OP(O)(O)=S)[C@@H](O)[C@H]2O)c(=O)[nH]1` [GTPγS]: the “% Decrease in [3H]NT Bound in Presence of 100 μM GTPγS” value in the assay on HNT2RS [3] came out at 35.3%; on HNT2R, 51.5%.
For the molecule “AcNT(8-13): N-acetylated form of the carboxyl terminal 6 amino acids of neurotensin (8-13)”, the “competition of [3H]neurotensin binding” value in the assay on HNT2RS [1] was “equally well”. For the same molecule, the “binding affinity compared with the 13 amino acid form of neurotensin” value in assay [2] is “identical”. In addition, in the assay with fasted ob/ob males (AcNT(8-13) i.p., fasted ob/ob males), the food consumption entry is given as “biphasic suppression of food consumption”. Besides, the “suppression of food consumption” value in the assay with fasted ob/ob males (administered acutely) is 40-60%. In assay [4], the “lipolytic effects (NEFAs and glycerol)” value was “elevated NEFAs and glycerol”; the oxygen consumption result was “increased”.
As for “NT(9-13): neurotensin (9-13) fragment, a neurotensin receptor binding partner”, in the assay with HNT2RS [1], the “competition of [3H]neurotensin binding” value is reported as “bound with lower affinity”.
On to `COc1cccc(OC)c1-c1cc(C(=O)NC2(C(=O)O)C3CC4CC(C3)CC2C4)nn1-c1ccc(C(=O)N(C)CCCN(C)C)cc1C(C)C.Cl` (centres unmarked) [SR142948], for which the “affinity for the NT1R and NT2R subtypes” value in assay [2] is “comparable affinity”.
